Source: patent publication US20220340875A1, “METHODS OF CULTURING AND/OR EXPANDING STEM CELLS AND/OR LINEAGE COMMITTED PROGENITOR CELLS USING AMIDO COMPOUNDS” (IDEAYA BIOSCIENCES, INC., priority 2018, published 2022)

target: T1, hAhR (Homo sapiens, UniProt P35869); assay: AhR DRE-luciferase reporter transcriptional assay, antagonist mode (TCDD-induced); assay type: cell-based; details: HEPG2 DRE-Luc cells, 3 nM TCDD, 24 hour incubation, relative IC50
T1 construct: Stably integrated DRE-luciferase cell lines were generated by transducing the both cell lines with Cignal XRE luciferase reporter (Qiagen) lentiviral particles; endogenous in cells
T1 sequence (P35869 11-848): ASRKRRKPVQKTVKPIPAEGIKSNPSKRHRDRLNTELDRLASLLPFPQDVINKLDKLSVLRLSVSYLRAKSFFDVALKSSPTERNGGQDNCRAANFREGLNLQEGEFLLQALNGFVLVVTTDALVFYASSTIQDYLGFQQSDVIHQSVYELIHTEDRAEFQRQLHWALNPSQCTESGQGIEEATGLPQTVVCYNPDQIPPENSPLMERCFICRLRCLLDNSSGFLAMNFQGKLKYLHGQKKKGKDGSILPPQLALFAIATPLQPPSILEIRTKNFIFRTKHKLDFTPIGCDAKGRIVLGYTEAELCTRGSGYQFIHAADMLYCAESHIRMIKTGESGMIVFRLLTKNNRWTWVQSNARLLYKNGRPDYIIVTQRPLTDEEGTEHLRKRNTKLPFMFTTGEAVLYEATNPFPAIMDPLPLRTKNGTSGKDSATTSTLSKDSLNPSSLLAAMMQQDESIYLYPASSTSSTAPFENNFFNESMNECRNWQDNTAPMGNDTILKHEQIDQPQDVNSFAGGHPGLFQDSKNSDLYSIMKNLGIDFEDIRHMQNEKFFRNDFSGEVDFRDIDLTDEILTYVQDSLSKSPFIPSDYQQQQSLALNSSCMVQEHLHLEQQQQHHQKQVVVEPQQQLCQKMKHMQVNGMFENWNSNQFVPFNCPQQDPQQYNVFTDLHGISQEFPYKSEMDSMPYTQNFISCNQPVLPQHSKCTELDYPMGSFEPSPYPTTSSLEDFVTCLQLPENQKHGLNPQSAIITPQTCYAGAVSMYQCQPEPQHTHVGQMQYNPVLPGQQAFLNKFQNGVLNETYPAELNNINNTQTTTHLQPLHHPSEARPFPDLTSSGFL
Description: HEPG2 and HEPA1C1C7 cells were maintained in MEM and αMEM without nucleosides supplemented with 10% heat inactivated FBS respectively. Stably integrated DRE-luciferase cell lines were generated by transducing the both cell lines with Cignal XRE luciferase reporter (Qiagen) lentiviral particles according to the manufacturer protocol. For both cell lines stably integrated reporter cell lines were selected for the presence of 2 µg/mL puromycin. Following selection of stably integrated cell line pools, clonal cell lines were isolated by limiting dilution in 96-well plates. Transcriptional assays were performed by seeding 100 μL of cells at a density of 250,000 or 100,000 cells/mL, for HEPG2 and HEPA1C1C7 DRE-Luc cells respectively, into 96-well cell culture plates in OptiMEM supplemented with 0.5% heat inactivated FBS and allowed to attach overnight. For modulator assays, the compounds were added in a semi-log dose response using a D300e Digital Dispenser (Tecan) followed normalization with vehicle (DMSO). Immediately following compound addition 10 μL of 2,3,7,8-Tetrachlorodibenzo-p-dioxin (TCDD) was added to the cells to a final concentration of 3 nM or 0.3 nM for the HEPG2 and HEPA1C1C7 DRE-Luc cells respectively. Following 24 hour incubation the medium was removed and the cells were lysed in 25 μL of Reporter Lysis Buffer (Promega). Firefly luciferase activity was measured immediately following the addition of 50 μL Luciferase Assay Reagent (Promega). The percent maximal activity for each point was determined using the following equasion: (RLUsample-RLUvehicle−TCDD)/(RLUvehicle+TCDD RLUvehicle−TCDD)*100. The relative IC50, defined as the compound concentration required to reduce the TCDD induced response between the top and bottom plateau of each individual dose response curve by half, for each compound was determined using Prism 7 (GraphPad Software).

With Cc1cc(-c2ccc3cc(C4CC4)ccc3n2)ccc1NC(=O)c1ccnn1C [Example 068, N-(4-(6-cyclopropylquinolin-2-yl)-2-methylphenyl)-1-methyl-1H-pyrazole-5-carboxamide] as the molecule, how does the IC50 read?
The IC50 was 1000 to 10000 nM.

With Cc1cc(-c2ccc3cc(F)ccc3n2)ccc1NC(=O)N1CCOCC1 [Example 041, N-(4-(6-fluoroquinolin-2-yl)-2-methylphenyl)morpholine-4-carboxamide] as the molecule, how does the IC50 read?
The IC50 was 1000 to 10000 nM.

Cn1nccc1C(=O)Nc1ccc(-c2ccc3cc(F)ccc3n2)cc1C(F)(F)F [Example 048, N-(4-(6-fluoroquinolin-2-yl)-2-(trifluoromethyl)phenyl)-1-methyl-1H-pyrazole-5-carboxamide] was tested. Which IC50 did it give?
The IC50 was 1000 to 10000 nM.

Cc1cc(-c2ncc3cc(C(F)(F)F)ccc3n2)ccc1N(C)C(=O)c1ccnn1CCO [Example 211, 1-(2-hydroxyethyl)-N-methyl-N-(2-methyl-4-(6-(trifluoromethyl)quinazolin-2-yl)phenyl)-1H-pyrazole-5-carboxamide] was tested. Which IC50 did it give?
The IC50 was less than 200 nM.

Cc1cc(-c2ncc3cc(C(F)(F)F)ccc3n2)ccc1N(C)C(=O)c1c(C)cnn1C [Example 217, N,1,4-trimethyl-N-(2-methyl-4-(6-(trifluoromethyl)quinazolin-2-yl)phenyl)-1H-pyrazole-5-carboxamide] was tested. Which IC50 did it give?
Its IC50 is less than 200 nM.

For Cc1cc(C(=O)N(C)c2ccc(-c3ncc4nc(OC(F)(F)F)cc(C)c4n3)cc2C)ccn1 [Example 161, N,2-dimethyl-N-(2-methyl-4-(8-methyl-6-(trifluoromethoxy)pyrido[3,2-d]pyrimidin-2-yl)phenyl)isonicotinamide], which IC50 is on record?
The IC50 was 200 to 500 nM.

Which IC50 does the source give for [2H]C([2H])([2H])N(C(=O)c1ccnn1C)c1ccc(-c2ccc3cc(C(F)(F)F)ccc3n2)cc1C [Example 212, 1-methyl-N-(methyl-d3)-N-(2-methyl-4-(6-(trifluoromethyl)quinolin-2-yl)phenyl)-1H-pyrazole-5-carboxamide] here?
The IC50 was less than 200 nM.

Which IC50 does the source give for Cc1cc(-c2ccc3cncc(Cl)c3n2)ccc1NC(=O)c1ccnn1C [Example 104, N-(4-(8-chloro-1,6-naphthyridin-2-yl)-2-methylphenyl)-1-methyl-1H-pyrazole-5-carboxamide] here?
Its IC50 is less than 200 nM.

Cc1cc(-c2ncc3nc(C(F)(F)F)ccc3n2)ccc1NC(=O)c1ccnn1CC(C)O (stereo not shown) [Example 193, 1-(2-hydroxypropyl)-N-(2-methyl-4-(6-(trifluoromethyl)pyrido[3,2-d]pyrimidin-2-yl)phenyl)-1H-pyrazole-5-carboxamide] was tested. Which IC50 did it give?
Its IC50 is 500 to 1000 nM.

How did the IC50 turn out when Cc1cc(-c2ccc3nncc(C)c3c2)ccc1NC(=O)c1ccnn1C [Example 062, 1-methyl-N-(2-methyl-4-(4-methylcinnolin-6-yl)phenyl)-1H-pyrazole-5-carboxamide] was run?
The IC50 was 1000 to 10000 nM.

For Cc1cc(-c2ccc3cc(C(F)(F)F)ccc3n2)c(C)cc1NC(=O)c1nn(C)cc1C [Example 208, N-(2,5-dimethyl-4-(6-(trifluoromethyl)quinolin-2-yl)phenyl)-1,4-dimethyl-1H-pyrazole-3-carboxamide], which IC50 is on record?
The IC50 was 1000 to 10000 nM.

With Cc1cc(-c2ncc3nc(C(F)(F)F)cc(C)c3n2)ccc1N(C)C(=O)c1ccnn1CCN1CCCC1 [Example 182, N-methyl-N-(2-methyl-4-(8-methyl-6-(trifluoromethyl)pyrido[3,2-d]pyrimidin-2-yl)phenyl)-1-(2-(pyrrolidin-1-yl)ethyl)-1H-pyrazole-5-carboxamide] as the molecule, how does the IC50 read?
Its IC50 is less than 200 nM.

With Cc1cc(-c2ncc3cc(F)cc(C)c3n2)ccc1NC(=O)c1ccnn1C [Example 109, N-(4-(6-fluoro-8-methylquinazolin-2-yl)-2-methylphenyl)-1-methyl-1H-pyrazole-5-carboxamide] as the molecule, how does the IC50 read?
The IC50 was less than 200 nM.

How did the IC50 turn out when Cc1cc(C(F)(F)F)nc2cnc(-c3ccc(NC(=O)N4CCOCC4)c(F)c3)nc12 [Example 185, N-(2-fluoro-4-(8-methyl-6-(trifluoromethyl)pyrido[3,2-d]pyrimidin-2-yl)-phenyl)morpholine-4-carboxamide] was run?
The IC50 was less than 200 nM.

For CC(=O)N(C)c1ccc(-c2ncc3cc(C(F)(F)F)ccc3n2)cc1C [Example 130, N-methyl-N-(2-methyl-4-(6-(trifluoromethyl)quinazolin-2-yl)phenyl)acetamide], which IC50 is on record?
Its IC50 is less than 200 nM.

For Cc1cc(-c2ccc3nc(C(F)(F)F)cc(C)c3n2)ccc1NC(=O)c1ccnn1C [Example 105, 1-methyl-N-(2-methyl-4-(8-methyl-6-(trifluoromethyl)-1,5-naphthyridin-2-yl)phenyl)-1H-pyrazole-5-carboxamide], which IC50 is on record?
The IC50 was less than 200 nM.

Which IC50 does the source give for Cc1cc(-c2ccc3cncc(Cl)c3c2)ccc1NC(=O)c1ccnn1C [Example 060, N-(4-(4-chloroisoquinolin-6-yl)-2-methylphenyl)-1-methyl-1H-pyrazole-5-carboxamide] here?
Its IC50 is 200 to 500 nM.

How did the IC50 turn out when Cc1cc(-c2ccc3cc(C(F)(F)F)ccc3n2)cc(F)c1N(C)C(=O)c1ccnn1C [Example 007, N-(2-fluoro-6-methyl-4-(6-(trifluoromethyl)quinolin-2-yl)phenyl)-N,1-dimethyl-1H-pyrazole-5-carboxamide] was run?
The IC50 was less than 200 nM.

For Cc1cc(-c2ncc3cc(C(F)(F)F)ccc3n2)ccc1N(C)C(=O)c1cnn[nH]1 [Example 146, N-methyl-N-(2-methyl-4-(6-(trifluoromethyl)quinazolin-2-yl)phenyl)-1H-1,2,3-triazole-5-carboxamide], which IC50 is on record?
The IC50 was 1000 to 10000 nM.

Which IC50 does the source give for Cc1cc(-c2ccc3c(C(F)(F)F)cn(C)c3c2)ccc1NC(=O)c1ccnn1C [Example 086, 1-methyl-N-(2-methyl-4-(1-methyl-3-(trifluoromethyl)-1H-indol-6-yl)phenyl)-1H-pyrazole-5-carboxamide] here?
Its IC50 is 1000 to 10000 nM.

Which IC50 does the source give for Cc1cc(-c2ccc3cnccc3c2)ccc1NC(=O)c1ccnn1C [Example 021, N-(4-(Isoquinolin-6-yl)-2-methylphenyl)-1-methyl-1H-pyrazole-5-carboxamide] here?
Its IC50 is 500 to 1000 nM.

How did the IC50 turn out when Cc1cc(-c2ncc3cc(C(F)(F)F)ccc3n2)ccc1NC(=O)c1ncccc1C [Example 117, 3-methyl-N-(2-methyl-4-(6-(trifluoromethyl)quinazolin-2-yl)phenyl)picolinamide] was run?
Its IC50 is 500 to 1000 nM.

For Cc1ccc2nc(-c3ccc(NC(=O)c4ccnn4C)c(C)c3)ccc2c1 [Example 079, 1-methyl-N-(2-methyl-4-(6-methylquinolin-2-yl)phenyl)-1H-pyrazole-5-carboxamide], which IC50 is on record?
The IC50 was 500 to 1000 nM.

How did the IC50 turn out when Cc1cc(-c2ccc3cc(F)ccc3n2)ccc1NC(=O)c1cnoc1C [Example 038, N-(4-(6-fluoroquinolin-2-yl)-2-methylphenyl)-5-methylisoxazole-4-carboxamide] was run?
The IC50 was 500 to 1000 nM.

With Cc1cc(-c2ccc3nc(C(F)(F)F)ncc3n2)ccc1NC(=O)c1ccnn1C [Example 139, 1-methyl-N-(2-methyl-4-(2-(trifluoromethyl)pyrido[3,2-d]pyrimidin-6-yl)phenyl)-1H-pyrazole-5-carboxamide] as the molecule, how does the IC50 read?
Its IC50 is 500 to 1000 nM.

Which IC50 does the source give for Cc1cc(C(F)(F)F)nc2cnc(-c3ccc(N(C)C(=O)c4ccnn4C)c(F)c3)nc12 [Example 162, N-(2-fluoro-4-(8-methyl-6-(trifluoromethyl)pyrido[3,2-d]pyrimidin-2-yl)-phenyl)-N,1-dimethyl-1H-pyrazole-5-carboxamide] here?
The IC50 was less than 200 nM.

How did the IC50 turn out when Cc1cc(-c2ccc3cc(F)ccc3n2)ccc1NC(=O)c1nccn1C [Example 033, N-(4-(6-fluoroquinolin-2-yl)-2-methylphenyl)-1-methyl-1H-imidazole-2-carboxamide] was run?
Its IC50 is 200 to 500 nM.

For Cc1cc(-c2ncc3nc(C(F)(F)F)ccc3n2)c(C)cc1NC(=O)c1ccnn1C [Example 189, N-(2,5-dimethyl-4-(6-(trifluoromethyl)pyrido[3,2-d]pyrimidin-2-yl)phenyl)-1-methyl-1H-pyrazole-5-carboxamide], which IC50 is on record?
The IC50 was 1000 to 10000 nM.
